Literature values in patent publication US5175181A, “Imidazolyl/imidazolylalkyl-N-terminal amino hydroxy” (G. D. Searle & Co., priority 1991, dated 1992).
Square brackets hold non-standard residues; d marks the D form. Peptide text beside a SMILES is read from it. * marks the point of attachment. Sta = CC(C)C[C@H](N)[C@@H](O)CC(=O)O; Isovaleryl = CC(C)CC(=O)*

Tests used:
[1] = test system: hog renin; details: after injection of hog renin into nephrectomized rats; Gross et al, Science 1971
[2] = test system: aspartyl proteases such as pepsin, cathepsin D and renin; details: Umezawa et al, J. Antibiot. 1970

CC(C)CC(=O)N[C@H](C(=O)N[C@H](C(=O)N[C@@H](CC(C)C)[C@@H](O)CC(=O)N[C@@H](C)C(=O)N[C@@H](CC(C)C)[C@@H](O)CC(=O)O)C(C)C)C(C)C [pepstatin] (Isovaleryl-VV[Sta]A[Sta]-OH)
blood pressure in vivo [1]: reduce blood pressure | inhibition of aspartyl proteases [2]: inhibitor of aspartyl proteases
